# According to the supplement of paper PMC10307832:
# Compound: CC(O)(CS(=O)(=O)c1ccc(F)cc1)C(=O)Nc1ccc(C#N)c(C(F)(F)F)c1 [Bicalutamide] + COc1cccc2cc(-c3nc([C@H]4CC[C@H](C(=O)O)CC4)n4ncnc(N)c34)[nH]c12 [OSI-027] (partner 0.5 µM)
# Assay: relative viability (nuclei count vs DMSO), 5 days (fraction); higher = more cells survive
# Conditions: first compound 0.08 µM
# Outline: (§1)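 Nuclei were stained with Hoechst during a one-step fixation (final 0.05% Triton X-100, 1% formaldehyde, 1 ug/ml Hoechst) carried out 5 days after dosing, then counted on 4× images. The cells, lung cancer lines in 1536-well plates, had been dosed by pin tool the day after seeding with one drug alone or a fixed anchor-drug dose plus five library-drug doses (not always all listed) in √10 steps. Relative viability is the nuclei count in treated wells divided by that in vehicle wells, and each value is the median of duplicate plates.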
row,Cell Line,relative viability
1,HARA,0.633
2,HCC-78,0.381
3,LCLC-97TM1,0.598
4,NCI-H2023,0.44
5,A-427,0.489
6,NCI-H460,0.772
7,NCI-H727,0.573
8,NCI-H1734,0.66
9,NCI-H520,0.237
10,NCI-H2405,0.651
11,SW 1573,0.629
12,201T,0.727
13,NCI-H1915,0.639
14,HCC-827,0.795
15,LXF-289,0.816
16,NCI-H2347,0.395
17,NCI-H650,0.559

row,Cell Line,relative viability
1,CAL-12T,0.574
2,NCI-H1651,0.654
3,EPLC-272H,0.314
4,NCI-H23,0.721
5,NCI-H1792,0.731
6,NCI-H1355,0.433
7,NCI-H322M,0.6
8,NCI-H1437,0.969
9,NCI-H1755,0.768
10,NCI-H2085,0.832
11,HCC-15,0.71
12,PC-3 [JPC-3],0.797
13,EKVX,0.747
14,LC-2-ad,0.962
15,NCI-H1563,0.764
16,NCI-H1944,0.476
17,NCI-H1975,0.741

# Same assay, conditions: first compound 0.253 µM
row,Cell Line,relative viability
1,HARA,0.361
2,HCC-78,0.371
3,LCLC-97TM1,0.37
4,NCI-H2023,0.338
5,A-427,0.479
6,NCI-H460,0.601
7,NCI-H727,0.546
8,NCI-H1734,0.473
9,NCI-H520,0.228
10,NCI-H2405,0.568
11,201T,0.609
12,NCI-H1915,0.516
13,HCC-827,0.697
14,LXF-289,0.725
15,NCI-H2347,0.327
16,NCI-H650,0.507
17,CAL-12T,0.638

row,Cell Line,relative viability
1,NCI-H1651,0.562
2,EPLC-272H,0.34
3,NCI-H23,0.544
4,NCI-H1792,0.634
5,NCI-H1355,0.367
6,NCI-H322M,0.524
7,NCI-H1437,0.776
8,NCI-H1755,0.687
9,NCI-H2085,0.642
10,HCC-15,0.612
11,PC-3 [JPC-3],0.808
12,EKVX,0.631
13,LC-2-ad,0.718
14,NCI-H1563,0.698
15,NCI-H1944,0.292
16,NCI-H1975,0.642

# Same assay, conditions: first compound 0.8 µM
row,Cell Line,relative viability
1,HARA,0.744
2,HCC-78,0.43
3,LCLC-97TM1,0.627
4,NCI-H2023,0.427
5,A-427,0.584
6,NCI-H460,1.04
7,NCI-H727,0.623
8,NCI-H1734,0.614
9,NCI-H520,0.373
10,NCI-H2405,0.624
11,SW 1573,0.734
12,201T,0.735
13,NCI-H1915,0.653
14,HCC-827,0.86
15,LXF-289,0.851
16,NCI-H2347,0.515
17,NCI-H650,0.524

row,Cell Line,relative viability
1,CAL-12T,0.72
2,NCI-H1651,0.856
3,EPLC-272H,0.325
4,NCI-H23,0.605
5,NCI-H1792,0.855
6,NCI-H1355,0.464
7,NCI-H322M,0.568
8,NCI-H1437,0.973
9,NCI-H1755,0.82
10,NCI-H2085,0.788
11,HCC-15,0.908
12,PC-3 [JPC-3],0.768
13,EKVX,0.739
14,LC-2-ad,0.885
15,NCI-H1563,0.804
16,NCI-H1944,0.442
17,NCI-H1975,0.746

# Same assay, conditions: first compound 2.53 µM
row,Cell Line,relative viability
1,HARA,0.483
2,HCC-78,0.352
3,LCLC-97TM1,0.422
4,NCI-H2023,0.271
5,A-427,0.398
6,NCI-H460,0.545
7,NCI-H727,0.442
8,NCI-H1734,0.488
9,NCI-H520,0.251
10,NCI-H2405,0.632
11,SW 1573,0.656
12,201T,0.736
13,NCI-H1915,0.535
14,HCC-827,0.751
15,LXF-289,0.672
16,NCI-H2347,0.427
17,NCI-H650,0.432

row,Cell Line,relative viability
1,CAL-12T,0.431
2,NCI-H1651,0.694
3,EPLC-272H,0.243
4,NCI-H23,0.495
5,NCI-H1792,0.768
6,NCI-H1355,0.4
7,NCI-H322M,0.474
8,NCI-H1437,0.841
9,NCI-H1755,0.524
10,NCI-H2085,0.628
11,HCC-15,0.571
12,PC-3 [JPC-3],0.737
13,EKVX,0.718
14,LC-2-ad,0.684
15,NCI-H1563,0.65
16,NCI-H1944,0.389
17,NCI-H1975,0.633

# Compound: C(C(=O)C(=O)O)Br [Bromopyruvate] + C[C@@H](Oc1cc(-c2cnn(C3CCNCC3)c2)cnc1N)c1c(Cl)ccc(F)c1Cl [Crizotinib] (partner 1 µM)
# Assay: as above
# Conditions: first compound 1 µM
# Outline: as §1
row,Cell Line,relative viability
1,HARA,1.05
2,HCC-78,0.368
3,NCI-H2023,0.685
4,A-427,0.878
5,NCI-H460,0.771
6,NCI-H727,0.996
7,NCI-H1734,0.67
8,NCI-H520,0.716
9,NCI-H2405,0.79
10,SW 1573,1.02
11,201T,1.06
12,NCI-H1915,0.836
13,HCC-827,0.939
14,LXF-289,0.841
15,NCI-H2347,0.753
16,NCI-H650,0.7
17,CAL-12T,0.663

row,Cell Line,relative viability
1,NCI-H1651,0.876
2,EPLC-272H,0.773
3,NCI-H23,0.386
4,NCI-H1792,1.11
5,NCI-H1355,1.05
6,NCI-H322M,0.958
7,NCI-H1437,0.923
8,NCI-H1755,0.973
9,NCI-H2085,0.823
10,HCC-15,0.823
11,PC-3 [JPC-3],1.03
12,EKVX,0.917
13,LC-2-ad,0.218
14,NCI-H1563,0.883
15,NCI-H1944,1.08
16,NCI-H1975,0.95

# Same assay, conditions: first compound 3.162 µM
row,Cell Line,relative viability
1,HARA,1.03
2,HCC-78,0.339
3,NCI-H2023,0.658
4,A-427,0.873
5,NCI-H460,0.921
6,NCI-H727,0.89
7,NCI-H1734,0.68
8,NCI-H520,0.707
9,NCI-H2405,0.841
10,SW 1573,0.815
11,201T,1.03
12,NCI-H1915,0.862
13,HCC-827,0.919
14,LXF-289,0.807
15,NCI-H2347,0.602
16,NCI-H650,0.721
17,CAL-12T,0.663

row,Cell Line,relative viability
1,NCI-H1651,0.83
2,EPLC-272H,0.996
3,NCI-H23,0.514
4,NCI-H1792,1.03
5,NCI-H1355,1.06
6,NCI-H322M,0.804
7,NCI-H1437,0.981
8,NCI-H1755,0.797
9,NCI-H2085,0.984
10,HCC-15,0.898
11,PC-3 [JPC-3],1
12,EKVX,1.1
13,LC-2-ad,0.47
14,NCI-H1563,0.979
15,NCI-H1944,1.09
16,NCI-H1975,0.955

# Same assay, conditions: first compound 10 µM
row,Cell Line,relative viability
1,HARA,0.983
2,HCC-78,0.37
3,LCLC-97TM1,0.377
4,NCI-H2023,0.618
5,A-427,0.82
6,NCI-H460,1.09
7,NCI-H727,0.844
8,NCI-H1734,0.803
9,NCI-H520,0.737
10,NCI-H2405,1.04
11,SW 1573,0.76
12,201T,1.02
13,NCI-H1915,0.885
14,HCC-827,0.931
15,LXF-289,0.786
16,NCI-H2347,0.951
17,NCI-H650,0.678

row,Cell Line,relative viability
1,CAL-12T,0.743
2,NCI-H1651,0.919
3,EPLC-272H,0.999
4,NCI-H23,0.514
5,NCI-H1792,1.09
6,NCI-H1355,1.18
7,NCI-H322M,0.948
8,NCI-H1437,0.914
9,NCI-H1755,0.884
10,NCI-H2085,0.874
11,HCC-15,0.793
12,PC-3 [JPC-3],0.944
13,EKVX,1.08
14,LC-2-ad,0.458
15,NCI-H1563,0.956
16,NCI-H1944,1.12
17,NCI-H1975,1

# Same assay, conditions: first compound 31.62 µM
row,Cell Line,relative viability
1,HARA,0.991
2,HCC-78,0.349
3,LCLC-97TM1,0.427
4,NCI-H2023,0.785
5,A-427,0.741
6,NCI-H460,0.919
7,NCI-H727,0.739
8,NCI-H1734,0.67
9,NCI-H520,0.685
10,NCI-H2405,0.696
11,SW 1573,0.803
12,201T,1.02
13,NCI-H1915,0.923
14,HCC-827,0.999
15,LXF-289,0.791
16,NCI-H2347,0.595
17,NCI-H650,0.634

row,Cell Line,relative viability
1,CAL-12T,0.48
2,NCI-H1651,0.847
3,EPLC-272H,0.92
4,NCI-H23,0.494
5,NCI-H1792,0.878
6,NCI-H1355,1.06
7,NCI-H322M,0.806
8,NCI-H1437,0.938
9,NCI-H1755,0.881
10,NCI-H2085,0.778
11,HCC-15,0.817
12,PC-3 [JPC-3],1.01
13,EKVX,1.03
14,LC-2-ad,0.52
15,NCI-H1563,0.828
16,NCI-H1944,1.07
17,NCI-H1975,0.981

# Same assay, conditions: first compound 100 µM
row,Cell Line,relative viability
1,HARA,1.06
2,HCC-78,0.347
3,LCLC-97TM1,0.186
4,NCI-H2023,0.542
5,A-427,0.793
6,NCI-H460,0.714
7,NCI-H727,0.83
8,NCI-H1734,0.659
9,NCI-H520,0.673
10,NCI-H2405,0.907
11,SW 1573,0.57
12,201T,1.08
13,NCI-H1915,0.878
14,HCC-827,0.964
15,LXF-289,0.833
16,NCI-H2347,0.684
17,NCI-H650,0.711

row,Cell Line,relative viability
1,CAL-12T,0.505
2,NCI-H1651,0.796
3,EPLC-272H,0.911
4,NCI-H23,0.423
5,NCI-H1792,0.984
6,NCI-H1355,0.983
7,NCI-H322M,0.943
8,NCI-H1437,0.92
9,NCI-H1755,1
10,NCI-H2085,0.797
11,HCC-15,0.905
12,PC-3 [JPC-3],0.983
13,EKVX,0.996
14,LC-2-ad,0.469
15,NCI-H1563,0.998
16,NCI-H1944,1.14
17,NCI-H1975,0.955

# Compound: C(C(=O)C(=O)O)Br [Bromopyruvate] + C[C@]1(O)C[C@@H](c2nc(-c3ccc4ccc(-c5ccccc5)nc4c3)c3c(N)nccn32)C1 [Linsitinib] (partner 1 µM)
# Assay: as above
# Conditions: first compound 1 µM
# Outline: as §1
row,Cell Line,relative viability
1,HARA,0.978
2,HCC-78,0.457
3,NCI-H2023,0.664
4,A-427,1.05
5,NCI-H460,0.801
6,NCI-H727,0.307
7,NCI-H1734,0.837
8,NCI-H520,1.06
9,NCI-H2405,0.938
10,SW 1573,0.839
11,201T,1.05
12,NCI-H1915,1.12
13,HCC-827,1.01
14,LXF-289,0.966
15,NCI-H2347,0.995
16,NCI-H650,0.756
